Assay results taken from patent publication US12115157B2, “3-phenoxyazetidin-1-yl-heteroaryl pyrrolidine derivatives and the use thereof as medicament” (Boehringer Ingelheim International GmbH, priority 2021, dated 2024).

Tests used:
[1] = test system: primary human hepatocytes; assay: In vitro metabolite profiling in primary human hepatocytes with or without proadifen; assay type: in vitro ADME; conditions: for % Parent of drug-related material: incubations in primary human hepatocytes, 1 μM test compound; for Contribution of amide hydrolysis to metabolism (incl. secondary metabolites): abundance of deacetylated metabolites relative to all metabolites
Description: In vitro metabolite profiling to evaluate the involvement of non-CYP-enzyme-mediated metabolic pathways such as hydrolysis in addition to CYP-mediated pathways is based on the semiquantitative analysis of the formation of prototypic metabolites in incubations with liver microsomes (with and without beta-nicotinamide adenine dinucleotide phosphate, NADPH), primary human hepatocytes (with and without the pan-CYP inhibitor proadifen) and recombinant CYP enzymes.
An additional measure to identify CYP-independent metabolic pathways is the use of the pan-CYP inhibitor proadifen in incubations of the test compound with human hepatocytes. In presence of proadifen, the CYP-related pathways are inhibited and metabolites would primarily be generated via non-CYP pathways.
The involvement of non-CYP-enzymes in metabolic transformations of the test compound was further investigated using primary human hepatocytes in suspension in presence or absence of the pan-CYP inhibitor proadifen (50 μM final incubation concentration). After recovery from cryopreservation, human hepatocytes were incubated in Dulbecco's modified eagle medium supplemented with 3.5 μg glucagon/500 ml, 2.5 mg insulin/500 ml and 3.75 mg/500 ml hydrocortisone containing 5% (v/v) human serum.
Following a 30 min preincubation in a cell culture incubator (37° C., 10% CO2) with or without 50 μM proadifen, test compound solution was spiked into the hepatocyte suspension to obtain a final cell density of 1.0*10^6 to 4.0*10^6 cells/ml (depending on the metabolic turnover rate of the compound observed with primary human hepatocytes), a final test compound concentration of 1 μM, and a final DMSO concentration of 0.05% (v/v).
The cells were incubated for six hours (incubator, horizontal shaker) and samples were removed from the incubation after 0, 0.5, 1, 2, 4 or 6 hours, depending on the metabolic turnover rate. Samples were quenched with acetonitrile and pelleted by centrifugation. The supernatant was transferred to a 96-deepwell plate, evaporated under nitrogen, and resuspended prior to bioanalysis by liquid chromatography-high resolution mass spectrometry for identification of putative metabolites.
The contribution of hydrolysis was calculated based on the abundance of the respective deacetylated metabolite(s) of the compounds of the present invention relative to all metabolites observed in incubations with human hepatocytes.

hERG channel = hERG channel (Homo sapiens (Human), UniProt Q12809); assay: hERG channel assay (whole-cell patch clamp); assay type: cell-based; conditions: HEK293 cells stably transfected with hERG cDNA
Chain of hERG channel (Q12809 whole entry): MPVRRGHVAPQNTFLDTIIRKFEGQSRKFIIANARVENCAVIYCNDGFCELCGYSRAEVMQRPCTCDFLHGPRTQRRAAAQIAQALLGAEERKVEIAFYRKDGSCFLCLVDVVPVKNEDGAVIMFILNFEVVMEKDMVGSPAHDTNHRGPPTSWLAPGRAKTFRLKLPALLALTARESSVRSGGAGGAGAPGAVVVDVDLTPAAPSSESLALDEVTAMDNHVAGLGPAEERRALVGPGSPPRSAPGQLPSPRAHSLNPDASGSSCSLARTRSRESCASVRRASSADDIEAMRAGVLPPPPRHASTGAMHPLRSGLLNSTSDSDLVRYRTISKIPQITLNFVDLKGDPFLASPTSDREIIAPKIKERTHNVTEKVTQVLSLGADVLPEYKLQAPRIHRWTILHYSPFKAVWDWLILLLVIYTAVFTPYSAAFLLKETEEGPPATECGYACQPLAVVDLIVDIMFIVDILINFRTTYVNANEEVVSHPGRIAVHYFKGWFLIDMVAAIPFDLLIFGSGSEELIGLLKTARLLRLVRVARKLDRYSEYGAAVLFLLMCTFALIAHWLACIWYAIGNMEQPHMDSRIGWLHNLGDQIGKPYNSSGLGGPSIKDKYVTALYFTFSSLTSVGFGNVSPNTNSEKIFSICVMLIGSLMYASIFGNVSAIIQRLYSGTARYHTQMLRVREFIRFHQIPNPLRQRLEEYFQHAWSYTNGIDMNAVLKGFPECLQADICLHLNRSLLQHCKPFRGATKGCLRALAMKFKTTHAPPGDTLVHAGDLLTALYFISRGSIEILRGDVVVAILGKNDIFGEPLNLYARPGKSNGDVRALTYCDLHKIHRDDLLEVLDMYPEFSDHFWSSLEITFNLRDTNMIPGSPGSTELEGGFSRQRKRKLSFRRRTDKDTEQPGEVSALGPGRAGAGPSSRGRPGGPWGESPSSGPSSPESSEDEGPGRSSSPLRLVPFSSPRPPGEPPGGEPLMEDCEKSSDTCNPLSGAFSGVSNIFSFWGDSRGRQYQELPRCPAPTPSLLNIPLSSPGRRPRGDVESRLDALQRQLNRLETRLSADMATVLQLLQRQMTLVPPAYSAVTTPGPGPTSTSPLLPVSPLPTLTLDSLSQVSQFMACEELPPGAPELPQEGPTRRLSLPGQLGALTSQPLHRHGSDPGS
Description: hERG Channel inhibition of compounds of the present invention was investigated as follows:
HEK (human embryonic kidney) 293 cells were stably transfected with hERG cDNA. Cells determined for use in patch clamp experiments were cultivated without antibiotic.
Cells were superfused with a bath solution containing (mM): NaCl (137), KCl (4.0), MgCl2 (1.0), CaCl2(1.8), Glucose (10), HEPES (10), pH 7.4 with NaOH. Patch pipettes were made from borosilicate glass tubing using a pipette and filled with pipette solution containing (mM): K-aspartate (130), MgCl2(5.0), EGTA (5.0), K2ATP (4.0), HEPES (10.0), pH 7.2 with KOH. Resistance of the microelectrodes was typically in the range between 2 MΩ and 5 MΩ.
Membrane currents were recorded using an EPC-10 patch clamp amplifier (HEKA Electronics, Lambrecht, FRG) and PatchMaster software (HEKA). hERG-mediated membrane currents were recorded at typically 28° C., using the whole-cell configuration of the patch-clamp technique. Transfected HEK293 cells were clamped at a holding potential of −60 mV and hERG-mediated inactivating tail currents were elicited using a pulse pattern with fixed amplitudes (activation/inactivation: 40 mV for 2000 ms; recovery: 120 mV for 2 ms; ramp to 40 mV in 2 ms; inactivating tail current: 40 mV for 50 ms) repeated at 15 s intervals. During each inter-pulse interval 4 pulses scaled down by a factor of 0.2 were recorded for a P/n leak subtraction procedure. Rs compensation was employed up to a level that safely allows recording devoid of ringing. The remaining uncompensated Rs was recorded as well as actual temperature and holding current.
The concentrations of the test item were applied sequentially on each of the different cells investigated. A steady state level of baseline current was measured for at least 5 sweeps prior to the application of the first test article concentration. The test item was dissolved in DMSO to yield a stock solution of 1000-fold the highest final concentration. This stock was diluted further in DMSO to stock solutions of 1000-fold the remaining final concentrations. Final dilutions in extracellular buffer were prepared freshly from these stocks by a 1:1000 dilution step each before starting the experiments.
Peak current amplitudes were measured 3 ms after the ramp to +40 mV. For baseline and each concentration, the peak currents of the three last sweeps before application of the next concentration were averaged. Residual currents (I/I0) were calculated for each cell as the fraction of actual average peak current and average baseline peak current. Current inhibition was expressed as […]. Current inhibition for all cells was reported as mean ±SD. If possible, from mean current inhibition data the IC50 was estimated based on the Hill equation using a least squares procedure.

human plasma proteins = assay: Human plasma protein binding assay (equilibrium dialysis); assay type: in vitro ADME; conditions: 1 μM, 2 hours, 37° C.
Description: Equilibrium dialysis (ED) technique was used to determine the approximate in vitro fractional binding of test compounds to plasma proteins. Dianorm Teflon dialysis cells (micro 0.2) were used. Each dialysis cell consists of a donor and an acceptor chamber, separated by an ultrathin semipermeable membrane with a 5 kDa molecular weight cut-off. Stock solutions for each test compound were prepared in DMSO at 1 mM and serially diluted to obtain a final test concentration of 1 μM. The subsequent dialysis solutions were prepared in plasma (supplemented with NaEDTA as anticoagulant), and aliquots of 200 μL test compound dialysis solution in plasma were dispensed into the donor (plasma) chambers. Aliquots of 200 μL dialysis buffer (100 mM potassium phosphate, pH 7.4) were dispensed into the buffer (acceptor) chamber. Incubation was carried out for 2 hours under rotation at 37° C. for establishing equilibrium.
At the end of the dialysis period, aliquots obtained from donor and acceptor chambers, respectively, were transferred into reaction tubes, spiked with Internal Standard solution and processed for HPLC-MS/MS analysis. Analyte concentrations were quantified in aliquots of samples by HPLC-MS/MS against external calibration curves.
Percent bound was calculated using the formula: % bound=(plasma concentration−buffer concentration/plasma concentration)×100

| % Inhibition by 50 μM proadifen ([1]; formation of secondary metabolite m443 (of m429), primary human hepatocytes) | % Parent of drug-related material [1] [%] | Contribution of amide hydrolysis to metabolism (incl. secondary metabolites) ([1]; primary human hepatocytes) [%] | Hu PPB (human plasma proteins) [% bound] | SMILES | IC50 (hERG channel) [µM] |
| --- | --- | --- | --- | --- | --- |
| 82^6 % untreated control | 82 | 49 | 84.4 | CC(=O)N1C[C@H](NC(=O)c2nccnc2N2CC(Oc3cc(F)c(F)c(F)c3)C2)C(F)(F)C1 [Example 11b] | > 10 |
|  | 86 | 51 | 82.4 | CC(=O)N1C[C@H](NC(=O)c2nccnc2N2CC(Oc3cc(F)cc(F)c3)C2)C(F)(F)C1 [Example 10a] | > 10 |
|  | 92 | 6 | 90.2 | CC(=O)N1CC[C@@H](NC(=O)c2nsnc2N2CC(Oc3cc(F)cc(F)c3)C2)C1 [Example 15a] | > 10 |
